The experiment deals with Radical scavenging activity. Briefly: Antioxidant activity assessed as inhibition of DPPH radical […] at 33 uM after 5 min by spectrophotometric analysis. It is filed as functional. (In general: The DPPH test is a chemical assay of radical scavenging.)
Regarding `O=c1cc(-c2ccc(O)cc2)oc2cc(O)cc(O)c12`, the inhibition was 0.7%.
In the case of `COc1ccc([C@@H]2CC(=O)c3c(O)cc(O)cc3O2)cc1O`, the inhibition is 30%.
As for `O=c1cc(-c2ccccc2)oc2ccccc12`, the figure is 1.5%; as for `O=c1cc(-c2ccccc2)oc2cccc(O)c12`, 0.6%.
For the compound `O=C1C[C@@H](c2ccc(O)cc2)Oc2cc(O)cc(O)c21`, the inhibition turned out to be 6.3%.
On to `O=c1cc(-c2ccccc2)oc2cc(O)cc(O)c12`, for which the inhibition was determined as 1.1%.
In the case of `O=c1cc(-c2ccccc2)oc2cc(O)ccc12` it was 2.8%.
On to `O=c1c(O)c(-c2ccc(O)c(O)c2)oc2cc(O)cc(O)c12`, for which the inhibition was 89.8%.
As for `COc1cccc2c(=O)cc(-c3ccccc3)oc12`, the inhibition is 0.7%.
Regarding `O=C1c2c(O)cc(O)cc2O[C@H](c2ccc(O)c(O)c2)[C@H]1O`, the inhibition was determined as 94.8%.
As for `O=C1CC(c2ccccc2)Oc2ccccc21` (stereo not given), the figure is 2.6%; as for `O=c1c(O)c(-c2ccc(O)c(O)c2)oc2cc(O)ccc12`, 79%.
As for `O=C1c2ccc(O)cc2O[C@H](c2ccc(O)c(O)c2)[C@H]1O`, the figure is 91.9%; as for `O=c1c(O)c(-c2ccccc2)oc2ccccc12`, 66%; as for `COc1cc(-c2oc3cc(O)cc(O)c3c(=O)c2O)cc(O)c1O`, 84.6%.
As for `O=c1c(O)c(-c2cc(O)c(O)c(O)c2)oc2cc(O)cc(O)c12`, the figure is 72.8%; as for `O=c1c(O)c(-c2ccccc2)oc2cc(O)cc(O)c12`, 91.8%; as for `O=c1c(O)c(-c2ccc(O)cc2O)oc2cc(O)cc(O)c12`, 96.5%.
Consider `O=c1c(O)c(-c2ccc(O)cc2)oc2cc(O)cc(O)c12`, for which the inhibition stood at 93.5%.
As for `O=c1c(O)c(-c2cc(O)c(O)c(O)c2)oc2cc(O)ccc12`, the figure is 82.3%.

Broadly, the inhibition is the percentage by which the read-out fell short of the control.

Values taken from ChEMBL document CHEMBL3046657, “Quantum chemical QSAR study of flavones and their radical-scavenging activity” (Med Chem Res, 2007).
